Assay [1] deals with 'Tam-R' cells. Put plainly: Test (d) fibronectin cell migration assay. The format is cell-based. The conditions noted are these: Homo sapiens, 20 h; read-out: IC50 versus 'Tam-R' cells, Test (d) fibronectin cell migration. Here is the method:
(§1) ‘Tam-R’ MCF7 breast cancer cells were maintained in phenol red-free RPMI medium supplemented with 5% charcoal-stripped, steroid-depleted foetal calf serum, antibiotics as above, glutamine (200 mM) and 4-hydroxytamoxifen (10^−7M in ethanol).
(d) Fibronectin Cell Migration Assay
The polycarbonate filter membranes of Transwell chambers (6.5 mm diameter, 8.0 μm pore size from Costar Inc., Cambridge, Mass., USA) were coated on the underside of the membrane with 50 μg/ml fibronectin in serum-free RPMI for 2 hours at 37° C. The polycarbonate membranes were rinsed once with PBS. Cells were harvested and resuspended at a concentration of 5×10^5 cells per ml in serum-free RPMI. Aliquots of cells (100 μl; 5×10^4 cells) were seeded into each well to which 500 μl of experimental medium had been added. In control experiments, cells were allowed to migrate toward the underside of the membrane for 20 hours. In test experiments, appropriate concentrations of inhibitor compounds (or combinations of inhibitor compounds) were added and cells were allowed to migrate toward the underside of the membrane for 20 hours. […] The number of migrating cells was counted at 20-fold magnification using an inverted microscope.

For assay [2], the system named is human and/or mouse carcinomas grown as tumours in athymic nude mice. The assay can be described thus: Test (i) in vivo xenograft growth assays. To be noted: AZD0530 used alone; oral once daily. From the text:
(i) In Vivo Xenograft Growth Assays
This test measures the ability of combination product of the invention to inhibit the growth of human and/or mouse carcinomas grown as tumours in athymic nude mice. Suitable cancer cells for injection include human MCF7 breast cancer cells (obtainable from American Type Culture Collection, 10801 University Boulevard, Manassas, Va. 20110-2209; Cat. No. HTB-22), c-Src transfected mouse 3T3 fibroblast cancer cells (transfection with an activating mutant (Y530F) of human c-Src via a similar procedure to that described by Shalloway et al., Cell, 1987, 49, 65-73), human LoVo colorectal cancer cells (obtainable from European Collection of Cell Cultures, ECACC, CAMR, Salisbury, Wiltshire, SP4 0JG, UK; Cat. No. CCL 229), human CaLu-6 lung cancer cells (ATCC Cat. No. HTB-56) and human A549 NSCLC cancer cells (ATCC Cat. No. CCL185).
A total of about 1×10^6 human cancer cells in 0.1 ml of a 1:1 mixture of matrigel (Beckton Dickinson Catalogue No. 40234) and Eagle's Minimum Essential Medium (EMEM; Gibco Catalogue No 21090-022) were injected subcutaneously into a flank of each test mouse and the resultant tumours were allowed to grow for about 10 days. […] Tumour size was measured twice weekly using callipers and a theoretical volume was calculated. The effect on tumour growth was assessed.

Assay [3] concerns 'Tam-R' cells. Put plainly: Test (e) cell invasion assay. The conditions noted are these: Homo sapiens, 72 h; read-out: IC50 versus 'Tam-R' cells, Test (e) cell invasion. The format is cell-based. As for the experimental part:
as §1
A modification of the method previously described by Hiscox et al. (Breast Cancer Research Treatment, 2000, 59, 245-254) was used to study the invasive nature of the breast cancer cells.
Transwell polycarbonate filter membrane inserts (6.5 mm diameter, 8 μm pore size from Costar Inc.) were placed in 24-well tissue-culture plates and were coated with Matrigel (0.4 μg/ml) at ambient temperature overnight in a sterile tissue culture hood. After rehydrating the wells with serum-free RPMI for 1 hour at 37° C., cells were seeded onto the membrane inserts at 5×10^4 cells/well with or without appropriate concentrations of inhibitor compounds (or combinations of inhibitor compounds) and 600 μl of culture medium was added such that the membrane inserts were immersed. The wells were cultured at 37° C. for 72 hours, after which the non-invasive cells and Matrigel were removed from the inside of the wells with a cotton swab. […] Cell invasion was quantified with a fluorescent microscope by viewing 5 separate fields per membrane at 2-fold magnification and counting the number of cells in each field. […]

Assay [4] relates to MCF7 human breast cancer cells. The assay can be described thus: Test (f) cell attachment assay. The format is cell-based. As for the experimental part: (f) Cell Attachment Assay
The wells of a 96-well plate were coated with Matrigel (50 μg/well) and air-dried overnight in a sterile tissue culture hood. Cells growing in log phase were harvested and adjusted to a concentration of 2×10^5 cells per ml in culture medium containing appropriate concentrations of inhibitor compounds (or combinations of inhibitor compounds). Aliquots of cells (2×10^4 cells) were seeded into each well and the plate was incubated at 37° C. for 30 minutes. The wells were washed twice with PBS to remove unbound cells prior to the addition to each well of 150 μl of MTT solution (0.5 mg/ml in serum-free medium). Plates were incubated for a further 4 hours at 37° C. to allow the development of […] crystals within the cells. The MTT solution was removed from the wells and the dye was extracted at 4° C. overnight with 10% TX-100 solution. The absorbance was measured with a Titerteck Multiskan ELISA plate reader (Flow Laboratories, UK) equipped with a 540 nm filter. Cell attachment in response to the treatments was calculated as a percentage of the cells adhered in the control (untreated) wells.

Assay [5] relates to MCF7 human breast cancer cells ('wild type', 'Tam-R', 'Tam/TKI-R'). The assay can be described thus: Test (a) cell growth studies. The format is cell-based. The conditions noted are these: MCF7, 168 h. From the text: Various test methods have been described by Knowlden et al., Endocrinology, 2003, 144, 1032-1044 and include one or more of:— • (i) tamoxifen-responsive ‘wild type’ MCF7 human breast cancer cells; • (ii) an endocrine-insensitive variant of such MCF7 breast cancer cells that was designated ‘Tam-R’ (tamoxifen-resistant); and • (iii) a variant of such ‘TAM-R’ cells that was also insensitive to treatment with the EGFR TKI ZD1839 that was designated ‘Tam/TKI-R’.
Tamoxifen-responsive ‘wild type’ MCF7 breast cancer cells were routinely cultured in phenol red-free RPMI medium supplemented with 5% foetal calf serum plus penicillin (10 IU/ml), streptomycin (10 μg/ml) and fungizone (2.5 μg/ml). Cultures were maintained at 37° C. in a humidified atmosphere with 5% CO2. […]
Cell monolayers were grown for 7 days in serum growth factor free DCCM medium in the presence of increasing concentrations of the individual components of the above-mentioned combinations or with the combinations themselves. Cell population growth was evaluated by means of trypsin dispersion of the cell monolayers and cell number was measured using a Beckman Coulter counter (available from Beckman Coulter Limited, Luton, GB). […]

For assay [6], the system named is human tumour cell line A549. Put plainly: Test (h) in vitro microdroplet migration assay. The format is cell-based. To be noted: read-out: activity, Test (h) (migratory inhibitory IC50). Here is the method:
(h) In Vitro Microdroplet Migration Assay
This assay determines the ability of a test compound (or combination of test compounds) to inhibit the migration of adherent mammalian cell lines, for example the human tumour cell line A549.
RPMI medium (Sigma) containing 10% FCS, 1% L-glutamine and 0.3% agarose (Difco Catalogue No. 0142-01) was warmed to 37° C. in a water bath. A stock 2% aqueous agar solution was autoclaved and stored at 42° C. An aliquot (1.5 ml) of the agar solution was added to RPMI medium (10 ml) immediately prior to its use. A549 cells (Accession No. ATCC CCL185) were suspended at a concentration of 2×10^7 cells/ml in the medium and maintained at a temperature of 37° C.
A droplet (2 μl) of the cell/agarose mixture was transferred by pipette into the centre of each well of a number of 96-well, flat bottomed non-tissue-culture-treated microtitre plate (Bibby Sterilin Catalogue No. 642000). The plates were placed briefly on ice to speed the gelling of the agarose-containing droplets. Aliquots (90 μl) of medium which had been cooled to 4° C. were transferred into each well, taking care not to disturb the microdroplets. Test compounds were diluted from a 10 mM stock solution in DMSO using RPMI medium as described above. […]
Migration was assessed visually and the distance of migration was measured back to the edge of the agar droplet. […]

Assay [7] concerns MCF7 human breast cancer cells. The assay can be described thus: Test (b) time lapse analysis of cell motility. Type of assay: cell-based. Here is the method: (b) Time Lapse Analysis of Cell Motility
Cells were cultured in 6-well tissue-culture plates and allowed to reach log phase growth. Plates were transferred to the heated stage of an inverted microscope and cell cultures were overlaid with mineral oil to minimise pH changes in the medium during the cell motility analysis. Cell motility was recorded over a period of 6 hours using a video camera coupled to a time lapse video recording system. For quantitation of cell motility, images were captured at 10 minute intervals during video playback and the movement of at least 10 individual cells was tracked using Optimas image analysis software (Media Cybernetics UK, Finchampstead, Berkshire, GB). Cell movement was plotted as either cell position (x-position vs. y-position) or total distance migrated (μm) as a function of time. To determine the directional persistence of cell motility, paths of cells were plotted such that all paths start from the origin.

Assay [8] has as its system tamoxifen resistant MCF7 breast cancer cells. To be noted: cited from earlier work.

Take `CN1CCN(CCOc2cc(OC3CCOCC3)c3c(Nc4c(Cl)ccc5c4OCO5)ncnc3c2)CC1` [AZD0530, 4-(6-chloro-2,3-methylenedioxyanilino)-7-[2-(4-methylpiperazin-1-yl)ethoxy]-5-tetrahydropyran-4-yloxyquinazoline]: the IC50 is roughly 100 nM in assay [1]; roughly 100 nM in assay [3]; 100 to 1000 nM in assay [4]; 100 to 5000 nM in assay [5]; 100 to 5000 nM in assay [6]; 100 to 1000 nM in assay [7]. Moreover, in assay [2], the “activity (active dose), Test (i) xenograft growth” value was in the range of 1 to 200 mg/kg/day.

For the molecule `COc1cc2ncnc(Nc3ccc(F)c(Cl)c3)c2cc1OCCCN1CCOCC1` [ZD1839, N-(3-chloro-4-fluorophenyl)-7-methoxy-6-(3-morpholinopropoxy)quinazolin-4-amine], the “basal and TGFα stimulated growth” value in assay [8] is listed as “could be inhibited”.

The record behind these values is US8680109B2, “Combination product comprising SRC kinase inhibitor AZDO530 and an antioestrogen or EGFR-TK-inhibitor” (AstraZeneca AB, priority 2004, dated 2014).
